From patent publication US11236067B2, “Compound for treating cystic fibrosis” (ORPHOMED, INC., priority 2019, dated 2022)
In brackets after ≈: the same amount, converted by molar mass. Entries after “also recorded” stand apart in the source; their conditions may differ.

Key:
[1] = Metabolic stability in human liver microsomes with NADPH generating system; format: in vitro ADME; details: for Substrate remaining (%) / Substrate loss (%) / microsomal CLint at 1 uM / half-life at 1 uM: 1 μM substrate; for microsomal CLint at 1 uM: read-out: Estimated in vitro intrinsic clearance (μL/min/mg protein); for half-life at 1 uM: read-out: Half-life estimated from single exponential decay; for Metabolic stability (in words): substrate in the presence of human liver microsomes
Experimental: The compound of Formula I (Compound 10) (1 uM) and ivacaftor (1 uM) were incubated with human liver microsomes (1 mg/mL protein/mL) in the presence of NADPH generating system (NADP (1 mM, ph7, glucose-6-phosphate (5 mM ph 7.4) and glucose-6-phosphate dehydrogenase (1 Unit/mL) for 0, 30, 60, and 120 minutes. Remaining substrate was measured by LC-MS/MS. Concentration of the test article was converted to percent drug remaining relative to the concentration of the test article at Time Zero.

[2] = Solubility by nephelometry (turbidity) in HEPES-buffered physiological saline with 0.3% DMSO; format: physicochemical; details: HB-PS with 0.3% DMSO; for solubility: HEPES-buffered physiological saline with 0.3% DMSO, aqueous buffer, kinetic from dmso stock, interpolated from solubility and turbidity plots, read-out: Solubility limit
Experimental: Solubility of the compound of Formula I (Compound 10) and ivacaftor was evaluated in HEPES-buffered physiological saline solution (HB-PS) with 0.3% DMSO. Solubility was measured as absence of turbidity using microparticualtes light-scattering technology in nephelometer and output expressed as nephelometry turbidity units (NTU). The HEPES buffer with 0.3% DMSO was the media used for the Ussing Chamber assays as described below. Concentrations of Compound 10 and ivacaftor tested in duplicate were 0, 0.01, 0.03, 0.1, 0.3, 1, 3, 10, 30 μM. The NIST traceable reference standard at 0, 0.2, 0.6 and 1 NTU were measured in duplicate as a reference standard for turbidity. The NTU values were plotted against the concentrations of Compound 10 and ivacaftor.

[3] = target: T1, F508del CFTR (Homo sapiens, UniProt P13569, DEL508-508); assay: CFTR potentiator activity, Ussing chamber assay in primary bronchial epithelia (CFhBE); format: cell-based
T1 construct: human primary bronchial epithelia obtained from donors with the homozygous F508del CFTR missense mutation (CFhBE); endogenous in cells; host or cells: human primary bronchial epithelial cells (CFhBE) from donors homozygous for F508del
Experimental: Chloride ion channel potentiator activity of the compound of Formula I (Compound 10) and ivacaftor was evaluated in monlayer cultures of human primary bronchial epithelia obtained from donors with the homozygous F508del CFTR missense mutation (CFhBE) using Ussing assay technology.
The Ussing chamber assay is a well-established method for measurement of transport across epithelia of a wide variety of transport substrates (Clark, American Journal of Physiology.Gastrointestinal and liver Physiology, 2009, 296, G1151-1166). The Ussing half-chambers permit both apical and basolateral surfaces of an epithelium to be exposed to identical solutions, eliminating the chemical concentration gradient for movement of molecules across the epithelium. Under these symmetric solution conditions, the epithelium generates a transepithelial potential by activity of ion selective channels and active transport processes asymmetrically distributed in apical and basolateral membranes. The epithelium is maintained at a potential difference of 0 mV. The negative feedback circuit used for controlling the potential difference at 0 mV is called a voltage clamp circuit. Any current generated by the voltage clamp to maintain the transepithelial potential at 0 mV can arise only from biological active transport processes in the epithelial cells and the current (called short circuit current (ISC)) is a direct measure of these processes. Efflux of chloride to the apical surface is enabled by opening of apical CFTR channels, which allows water to move to the cellular surface and keep the tissue hydrated.

[4] = human liver microsomes, 120 min

T1 sequence (P13569 with tags, fused parts or gaps DEL508-508): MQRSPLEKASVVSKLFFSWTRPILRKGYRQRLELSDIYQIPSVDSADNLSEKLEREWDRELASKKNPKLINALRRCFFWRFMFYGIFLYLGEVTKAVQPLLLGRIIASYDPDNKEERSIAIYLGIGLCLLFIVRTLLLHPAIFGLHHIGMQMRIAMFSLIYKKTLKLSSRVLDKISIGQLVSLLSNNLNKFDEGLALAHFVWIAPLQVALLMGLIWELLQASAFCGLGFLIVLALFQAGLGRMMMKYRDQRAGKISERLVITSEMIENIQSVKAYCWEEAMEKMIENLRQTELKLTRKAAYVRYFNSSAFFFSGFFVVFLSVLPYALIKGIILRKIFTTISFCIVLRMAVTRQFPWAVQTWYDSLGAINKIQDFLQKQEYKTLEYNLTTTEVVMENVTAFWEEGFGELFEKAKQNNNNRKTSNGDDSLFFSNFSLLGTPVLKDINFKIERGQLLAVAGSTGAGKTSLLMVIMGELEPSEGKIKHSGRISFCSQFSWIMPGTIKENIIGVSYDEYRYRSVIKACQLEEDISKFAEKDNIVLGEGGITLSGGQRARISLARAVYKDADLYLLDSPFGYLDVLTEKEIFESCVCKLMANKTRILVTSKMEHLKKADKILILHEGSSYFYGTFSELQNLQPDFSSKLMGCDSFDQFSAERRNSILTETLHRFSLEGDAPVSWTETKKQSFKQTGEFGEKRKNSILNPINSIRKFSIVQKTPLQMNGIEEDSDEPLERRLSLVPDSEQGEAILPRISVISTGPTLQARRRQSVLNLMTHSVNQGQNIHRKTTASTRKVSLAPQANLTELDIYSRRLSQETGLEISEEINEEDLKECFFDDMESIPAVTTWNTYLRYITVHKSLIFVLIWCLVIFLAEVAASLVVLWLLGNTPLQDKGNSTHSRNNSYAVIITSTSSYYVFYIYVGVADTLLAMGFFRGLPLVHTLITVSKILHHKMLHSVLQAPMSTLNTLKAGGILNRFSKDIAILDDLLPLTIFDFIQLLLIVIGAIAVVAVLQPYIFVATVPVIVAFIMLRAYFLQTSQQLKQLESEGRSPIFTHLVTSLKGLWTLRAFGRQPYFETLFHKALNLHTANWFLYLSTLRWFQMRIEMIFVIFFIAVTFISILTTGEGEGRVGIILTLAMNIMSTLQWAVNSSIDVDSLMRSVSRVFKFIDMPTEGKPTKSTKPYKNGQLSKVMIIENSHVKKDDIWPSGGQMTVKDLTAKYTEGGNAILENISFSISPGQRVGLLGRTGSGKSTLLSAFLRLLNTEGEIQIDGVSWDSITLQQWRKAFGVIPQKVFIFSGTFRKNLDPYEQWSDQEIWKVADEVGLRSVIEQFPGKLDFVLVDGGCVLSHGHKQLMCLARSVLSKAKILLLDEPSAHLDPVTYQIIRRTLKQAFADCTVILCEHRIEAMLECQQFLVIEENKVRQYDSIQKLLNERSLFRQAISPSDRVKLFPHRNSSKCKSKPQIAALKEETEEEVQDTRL

Row | SMILES | Metabolism back to ivacaftor or ivacaftor metabolites (in words) ([1]; human liver microsomes) | Substrate remaining (%) ([1]; human liver microsomes, 0 min) | Substrate loss (%) ([1]; human liver microsomes, 30 min) | Substrate remaining (%) ([1]; human liver microsomes, 30 min) | Substrate loss (%) ([1]; human liver microsomes, 60 min) | Substrate remaining (%) ([1]; human liver microsomes, 60 min) | Substrate loss (%) [1, 4] | Substrate remaining (%) [1, 4] | microsomal CLint at 1 uM ([1]; human liver microsomes) | half-life at 1 uM ([1]; human liver microsomes) | Metabolic stability (in words) [1] | Metabolic stability (in words) ([1]; listed as compound represented by Formula I) | Solubility relative to ivacaftor (times less soluble) [2] | solubility [2] | Potency relative to ivacaftor (times more potent) ([3]; based on solubility difference between the compound and ivacaftor) | Potentiator response (in words) ([3]; homozygous F508del CFhBE monolayers, short circuit current, FIGS. 2A and 2B) | Duration/stability of potentiator response (in words) ([3]; homozygous F508del CFhBE, FIGS. 2A and 2B) | Fraction metabolized ([1]; incubated with human liver microsomes (text summary of Table 1))
1 | CC(C)(C)c1cc(C(C)(C)C)c(OCCOc2cc(NC(=O)c3c[nH]c4ccccc4c3=O)c(C(C)(C)C)cc2C(C)(C)C)cc1NC(=O)c1c[nH]c2ccccc2c1=O [Compound of Formula I, N,N′-((ethane-1,2-diylbis(oxy))bis(2,4-di-tert-butyl-5,1-phenylene))bis(4-oxo-1,4-dihydroquinoline-3-carboxamide)] | not to substantially metabolize to ivacaftor, hydroxymethyl-ivacaftor or ivacaftor-carboxylate; also recorded: does not revert back to ivacaftor | 100% | No loss | 108% | No loss | 107% | No loss | 120% | < 5.78 µL/min/mg | > 2 h | metabolically stable | chemically and metabolically stable | 57.4 times | 0.137 µM | at least 15 times | potentiator response is similar to ivacaftor; also recorded: potentiated F508del CFTR | appears to remain stable longer than ivacftor | 
2 | CC(C)(C)c1cc(C(C)(C)C)c(NC(=O)c2c[nH]c3ccccc3c2=O)cc1O [ivacaftor, reference compound] |  | 100% | 30.4% | 69.6% | 49.1% | 50.9% | 69.5% | 30.5% | 10.6 µL/min/mg | 1.09 h |  |  |  | 7.86 µM (≈ 3.09 µg/mL) |  |  |  | ~70%
